Data taken from patent US5166321A, “Cecropin polypetides with activity against Gram-positive and Gram-negative bacteria” (International Genetic Engineering, Inc., priority 1987, dated 1992).
Square brackets hold non-standard residues; d marks the D form. Ends that are not written are not given here. Peptide text beside a SMILES is read from it. hSer = N[C@@H](CCO)C(=O)O

Legend:
E. coli MC1061 = assay: Agar-well halo assay of bactericidal activity; type: cell-based, Escherichia coli; conditions: overnight incubation at 25° C.
Experimental: (§1) The assay for antimicrobial activity was performed by pouring 10 ml of agar in TYE media containing about 10^7 viable cells of the test organisms. Wells, 2 mm in diameter, were punched in the agar plates. Aliquots of the modified cecropin-like polypeptides (2-12 ul) were then added to each well. The diameter of the inhibition zones, or haloes, around the wells, were measured after overnight incubation at 25° C.
(§2) The activities of various cecropin-like polypeptides were tested against both Gram-negative and Gram-positive organisms. Anti-microbial activity against the Gram-negative organisms remained unaltered for most of the Gram-negative bacteria (except, i.e., Serratia marcescens) as shown in Table 1. […] To determine a standard of halo formation, the various modified cecropin-like polypeptides were also applied to E. coli D21. Activity shown in Tables 1 and 2 is expressed as the ratio of the radius of the cleared halo for each organism versus that for E. coli D21.

S. typhimurium = assay: Agar-well halo assay of bactericidal activity; type: cell-based, Salmonella typhimurium; conditions: overnight incubation at 25° C.
Experimental: as §1, §2

E. cloacae = assay: Agar-well halo assay of bactericidal activity; type: cell-based; conditions: overnight incubation at 25° C.
Experimental: as §1, §2

P. aeruginosa = assay: Agar-well halo assay of bactericidal activity; type: cell-based, Pseudomonas aeruginosa; conditions: overnight incubation at 25° C.
Experimental: as §1, §2

Bacillus megaterium [1] = assay: Agar-well halo assay of bactericidal activity; type: cell-based; conditions: for Relative activity (ratio of the radius of the cleared halo versus that for E. coli D21): B. megaterium, overnight incubation at 25° C.
Experimental: as §1, §2
(§3) The cecropin-like polypeptide modified at the carboxy terminus with ethylenediamine and naturally occurring cecropin A were tested against a variety of organisms. The relative activities of the antimicrobial agents were expressed per nanomole of polypeptide applied to each well (Table 3).

Micrococcus luteus = assay: Agar-well halo assay of bactericidal activity; type: cell-based; conditions: for Relative activity (ratio of the radius of the cleared halo versus that for E. coli D21): M. luteus, overnight incubation at 25° C.
Experimental: as §1, §2, §3

Streptococcus faecalis = assay: Agar-well halo assay of bactericidal activity; type: cell-based; conditions: for Relative activity (ratio of the radius of the cleared halo versus that for E. coli D21): S. faecalis, overnight incubation at 25° C.
Experimental: as §1, §2, §3

B. subtilis = assay: Agar-well halo assay of bactericidal activity; type: cell-based, Bacillus subtilis; conditions: for Relative activity (ratio of the radius of the cleared halo versus that for E. coli D21): B. subtilis, overnight incubation at 25° C.
Experimental: as §1, §2, §3

Escherichia coli = assay: Agar-well halo assay, activity per nanomole; type: cell-based; conditions: per nanomole of polypeptide applied to each well
Experimental: as §1, §3

Bacillus megaterium [2] = conditions: from the literature; cited from earlier work

Molecule	Relative activity (ratio of the radius of the cleared halo versus that for E. coli D21) (E. coli MC1061)	Relative activity (ratio of the radius of the cleared halo versus that for E. coli D21) (S. typhimurium)	Relative activity (ratio of the radius of the cleared halo versus that for E. coli D21) (E. cloacae)	Relative activity (ratio of the radius of the cleared halo versus that for E. coli D21) (P. aeruginosa)	Relative activity (ratio of the radius of the cleared halo versus that for E. coli D21) (Bacillus megaterium [1])	Relative activity (ratio of the radius of the cleared halo versus that for E. coli D21) (Micrococcus luteus)	Relative activity (ratio of the radius of the cleared halo versus that for E. coli D21) (Streptococcus faecalis)	Relative activity (ratio of the radius of the cleared halo versus that for E. coli D21) (B. subtilis)	Activity per Nanomole (radius of the inhibitory ring) (Bacillus megaterium [1]; Bacillus megaterium, per nanomole of polypeptide applied to each well) [millimeters]	Activity per Nanomole (radius of the inhibitory ring) (Micrococcus luteus; Micrococcus luteus, per nanomole of polypeptide applied to each well) [millimeters]	Activity per Nanomole (radius of the inhibitory ring) (Streptococcus faecalis; Streptococcus faecalis, per nanomole of polypeptide applied to each well) [millimeters]	Activity per Nanomole (radius of the inhibitory ring) (B. subtilis; Bacillus subtilus, per nanomole of polypeptide applied to each well) [millimeters]	Activity per Nanomole (radius of the inhibitory ring) (Escherichia coli) [millimeters]	Sensitivity of Bacillus megaterium to the cecropin (Bacillus megaterium [2])
CC[C@H](C)[C@H](NC(=O)CNC(=O)[C@H](CC(=O)O)NC(=O)[C@H](CCCNC(=N)N)NC(=O)[C@@H](NC(=O)[C@H](CC(N)=O)NC(=O)[C@H](CCC(N)=O)NC(=O)CNC(=O)[C@@H](NC(=O)[C@H](CCCCN)NC(=O)[C@H](CCC(=O)O)NC(=O)[C@@H](NC(=O)[C@H](CCCCN)NC(=O)[C@H](CCCCN)NC(=O)[C@H](Cc1ccccc1)NC(=O)[C@H](CC(C)C)NC(=O)[C@H](CCCCN)NC(=O)[C@H](Cc1c[nH]c2ccccc12)NC(=O)[C@@H](N)CCCCN)[C@@H](C)CC)C(C)C)[C@@H](C)CC)C(=O)N[C@H](C(=O)N[C@@H](CCCCN)C(=O)N[C@@H](C)C(=O)NCC(=O)N1CCC[C@H]1C(=O)N[C@@H](C)C(=O)N[C@H](C(=O)N[C@@H](C)C(=O)N[C@H](C(=O)N[C@H](C(=O)NCC(=O)N[C@@H](CCC(N)=O)C(=O)N[C@@H](C)C(=O)N[C@H](C(=O)N[C@@H](CCC(N)=O)C(=O)N[C@H](C(=O)N[C@@H](C)C(=O)N[C@@H](CCCCN)C(=O)N[C@@H](CCO)C(N)=O)[C@@H](C)CC)[C@@H](C)O)C(C)C)C(C)C)C(C)C)[C@@H](C)CC [CA-HS-CONH2] (H-KWKLFKKIEKVGQNIRDGIIKAGPAVAVVGQATQIAK[hSer]-NH2)	0.81	1.09	0.86	0.71	0.4	1.4 ± 0.2	0	0.06 ± 0.06	–	–	–	–	–	–
CC[C@H](C)[C@H](NC(=O)CNC(=O)[C@H](CC(=O)O)NC(=O)[C@H](CCCNC(=N)N)NC(=O)[C@@H](NC(=O)[C@H](CC(N)=O)NC(=O)[C@H](CCC(N)=O)NC(=O)CNC(=O)[C@@H](NC(=O)[C@H](CCCCN)NC(=O)[C@H](CCC(=O)O)NC(=O)[C@@H](NC(=O)[C@H](CCCCN)NC(=O)[C@H](CCCCN)NC(=O)[C@H](Cc1ccccc1)NC(=O)[C@H](CC(C)C)NC(=O)[C@H](CCCCN)NC(=O)[C@H](Cc1c[nH]c2ccccc12)NC(=O)[C@@H](N)CCCCN)[C@@H](C)CC)C(C)C)[C@@H](C)CC)C(=O)N[C@H](C(=O)N[C@@H](CCCCN)C(=O)N[C@@H](C)C(=O)NCC(=O)N1CCC[C@H]1C(=O)N[C@@H](C)C(=O)N[C@H](C(=O)N[C@@H](C)C(=O)N[C@H](C(=O)N[C@H](C(=O)NCC(=O)N[C@@H](CCC(N)=O)C(=O)N[C@@H](C)C(=O)N[C@H](C(=O)N[C@@H](CCC(N)=O)C(=O)N[C@H](C(=O)N[C@@H](C)C(=O)N[C@@H](CCCCN)C(=O)N[C@@H](CCO)C(=O)O)[C@@H](C)CC)[C@@H](C)O)C(C)C)C(C)C)C(C)C)[C@@H](C)CC [CA-HS-COOH] (H-KWKLFKKIEKVGQNIRDGIIKAGPAVAVVGQATQIAK[hSer]-OH)	0.86	1.07	0.79	0.76	0.5	0.1 ± 0.1	0	0	–	–	–	–	–	–
KWKLFKKIEKVGQNIRDGIIKAGPAVAVVGQATQIAK [CA-COOH]	0.84	1.09	0.84	0.70	0.2	0	0	0	–	–	–	–	–	–
KWKLFKKIEKVGQNIRDGIIKAGPAVAVVGQATQIAK-NH2 [CA-NH2, cecropin A, reference compound]	0.80	1.06	0.92	0.70	0.7	1.2 ± 0.2	0	0.1 ± 0.05	5.1	6.1	< 0.5	< 0.5	6.1	highly sensitive
cecropin B (KWKVFKKIEKMGRNIRNGIVKAGPAIAVLGEAKAL; ends and bridges not checked; UniProt P01508 27-61, looked up) [major natural antibacterial peptide purified from immune hemolymph]	–	–	–	–	–	–	–	–	–	–	–	–	–	highly sensitive
cecropin D	–	–	–	–	–	–	–	–	–	–	–	–	–	relatively resistant
